Assay results as given in PubChem BioAssay AID2060901 (Molecular Pharmacology Branch, DTP, NCI, 2025).

Test system: 422866-222-R5-J1-PDC complex spheroids viability
Assay: Anticancer human tumor 422866-222-R5-J1-PDC patient-derived pancreatic adenocarcinoma cell line growth inhibition [RAS]
Conditions: for viability, T/C: stronger effect = lower value
Procedure, shortened: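 Tumour cells grown as complex spheroids with HUVEC endothelial cells and mesenchymal stem cells, treated with RAS pathway inhibitor combinations. Each agent spans half-log steps from near clinical Cmax, or 10 microM where Cmax is unknown.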

[1] = curve of first compound, second compound 0.00316 µM
[2] = curve of first compound, second compound 0.01 µM
[3] = curve of first compound, second compound 0.0316 µM
[4] = curve of first compound, second compound 0.1 µM
[5] = curve of first compound, second compound 0.316 µM
[6] = curve of first compound, second compound 1 µM
[7] = second compound 0.00316 µM, first compound 0.000949 µM
[8] = second compound 0.00316 µM, first compound 0.003 µM
[9] = second compound 0.00316 µM, first compound 0.00949 µM
[10] = second compound 0.00316 µM, first compound 0.03 µM
[11] = second compound 0.00316 µM, first compound 0.0949 µM
[12] = second compound 0.00316 µM, first compound 0.3 µM
[13] = second compound 0.01 µM, first compound 0.000949 µM
[14] = second compound 0.01 µM, first compound 0.003 µM
[15] = second compound 0.01 µM, first compound 0.00949 µM
[16] = second compound 0.01 µM, first compound 0.03 µM
[17] = second compound 0.01 µM, first compound 0.0949 µM
[18] = second compound 0.01 µM, first compound 0.3 µM
[19] = second compound 0.0316 µM, first compound 0.000949 µM
[20] = second compound 0.0316 µM, first compound 0.003 µM
[21] = second compound 0.0316 µM, first compound 0.00949 µM
[22] = second compound 0.0316 µM, first compound 0.03 µM
[23] = second compound 0.0316 µM, first compound 0.0949 µM
[24] = second compound 0.0316 µM, first compound 0.3 µM
[25] = second compound 0.1 µM, first compound 0.000949 µM
[26] = second compound 0.1 µM, first compound 0.003 µM
[27] = second compound 0.1 µM, first compound 0.00949 µM
[28] = second compound 0.1 µM, first compound 0.03 µM
[29] = second compound 0.1 µM, first compound 0.0949 µM
[30] = second compound 0.1 µM, first compound 0.3 µM
[31] = second compound 0.316 µM, first compound 0.000949 µM
[32] = second compound 0.316 µM, first compound 0.003 µM
[33] = second compound 0.316 µM, first compound 0.00949 µM
[34] = second compound 0.316 µM, first compound 0.03 µM
[35] = second compound 0.316 µM, first compound 0.0949 µM
[36] = second compound 0.316 µM, first compound 0.3 µM
[37] = second compound 1 µM, first compound 0.000949 µM
[38] = second compound 1 µM, first compound 0.003 µM
[39] = second compound 1 µM, first compound 0.00949 µM
[40] = second compound 1 µM, first compound 0.03 µM
[41] = second compound 1 µM, first compound 0.0949 µM
[42] = second compound 1 µM, first compound 0.3 µM
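Further: spheroids exposed to compounds for 7 days.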
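Wherever viability, T/C is given: 100% = DMSO vehicle control viability.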

CC(=O)OC12COC1CC(O)C1(C)C(=O)C(O)C3=C(C)C(OC(=O)C(O)C(NC(=O)OC(C)(C)C)c4ccccc4)CC(O)(C(OC(=O)c4ccccc4)C21)C3(C)C (stereo not given)
viability, T/C (compound 0.0316 µM): 60% [middle of 4 runs]
viability, T/C (compound 0.1 µM): 71.8% [middle of 4 runs]
viability, T/C (compound 0.316 µM): 71.4% [middle of 4 runs]
viability, T/C (compound 1 µM): 78.2% [middle of 4 runs]
viability, T/C (compound 10 µM): 77.4% [middle of 4 runs]
IC50 (curve of compound): > 10000 nM

CC1(C)CCC(Nc2ncc(C(F)(F)F)c(-c3c[nH]c4c(P(C)(C)=O)c(C#N)ccc34)n2)CN1 (stereo not given) + C=CC(=O)N1CCN(c2nc(OCC3CCCN3C)nc3c(F)c(-c4nc(N)cc(C)c4C(F)(F)F)c(Cl)cc23)C(C)C1
IC50 [1]: < 0.949 nM
IC50 [2]: < 0.949 nM
IC50 [3]: < 0.949 nM
IC50 [4]: < 0.949 nM
IC50 [5]: < 0.949 nM
IC50 [6]: < 0.949 nM
viability, T/C [7]: 27.1%
viability, T/C [8]: 29.2%
viability, T/C [9]: 25.8%
viability, T/C [10]: 25.1%
viability, T/C [11]: 27.3%
viability, T/C [12]: 28.8%
viability, T/C [13]: 23.1%
viability, T/C [14]: 20.7%
viability, T/C [15]: 28.3%
viability, T/C [16]: 24.7%
viability, T/C [17]: 26.8%
viability, T/C [18]: 28.3%
viability, T/C [19]: 24.6%
viability, T/C [20]: 24.4%
viability, T/C [21]: 22.2%
viability, T/C [22]: 23.3%
viability, T/C [23]: 27.2%
viability, T/C [24]: 27.4%
viability, T/C [25]: 24.6%
viability, T/C [26]: 22.3%
viability, T/C [27]: 25.5%
viability, T/C [28]: 23.4%
viability, T/C [29]: 26.6%
viability, T/C [30]: 27.6%
viability, T/C [31]: 20%
viability, T/C [32]: 20.3%
viability, T/C [33]: 25.5%
viability, T/C [34]: 24.6%
viability, T/C [35]: 25.8%
viability, T/C [36]: 24.5%
viability, T/C [37]: 22.1%
viability, T/C [38]: 22.3%
viability, T/C [39]: 21.1%
viability, T/C [40]: 24.2%
viability, T/C [41]: 30.4%
viability, T/C [42]: 26.2%

CCc1c2c(nc3ccc(O)cc13)-c1cc3c(c(=O)n1C2)COC(=O)[C@]3(O)CC + C=CC(=O)N1CCN(c2nc(OCC3CCCN3C)nc3c(F)c(-c4nc(N)cc(C)c4C(F)(F)F)c(Cl)cc23)C(C)C1
IC50 [1]: < 0.949 nM
IC50 [2]: < 0.949 nM
IC50 [3]: < 0.949 nM
IC50 [4]: < 0.949 nM
IC50 [5]: < 0.949 nM
IC50 [6]: < 0.949 nM
viability, T/C [7]: 25.3%
viability, T/C [8]: 21.1%
viability, T/C [9]: 15.8%
viability, T/C [10]: 15.9%
viability, T/C [11]: 15.2%
viability, T/C [12]: 11.3%
viability, T/C [13]: 24.9%
viability, T/C [14]: 20.7%
viability, T/C [15]: 18.1%
viability, T/C [16]: 18.3%
viability, T/C [17]: 12.9%
viability, T/C [18]: 10.9%
viability, T/C [19]: 25.3%
viability, T/C [20]: 18.3%
viability, T/C [21]: 16.8%
viability, T/C [22]: 14.8%
viability, T/C [23]: 15.4%
viability, T/C [24]: 15.6%
viability, T/C [25]: 21.8%
viability, T/C [26]: 15.9%
viability, T/C [27]: 15.4%
viability, T/C [28]: 16.2%
viability, T/C [29]: 14.6%
viability, T/C [30]: 10.9%
viability, T/C [31]: 19.1%
viability, T/C [32]: 17.5%
viability, T/C [33]: 15.6%
viability, T/C [34]: 14.2%
viability, T/C [35]: 12.8%
viability, T/C [36]: 12.3%
viability, T/C [37]: 17%
viability, T/C [38]: 16%
viability, T/C [39]: 17.1%
viability, T/C [40]: 14%
viability, T/C [41]: 14.4%
viability, T/C [42]: 13.1%
